Legend:
[1] = target: T1, Potassium channel (Rattus norvegicus, UniProt Q63563); experiment: Potassium channel opening activity, 86Rb release from excised rat aorta segment; format: cell-based, Wistar rat; settings: for ECAUC0.2 (effective concentration at which the area under the peak of the 86Rb release rate reached 0.2): rat aorta segment surface-perfused with test compound for 10 minutes; for potassium channel opening activity (in words): conclusion from Table 5
T1 construct: a segment of an excised aorta of a Wistar rat; from tissue; host or cells: excised aorta segment of Wistar rat

[2] = tested on: male HOS-Donryu rats; experiment: Antianginal activity, vasopressin-induced ST segment depression; format: in vivo, rat; settings: for S Value (area of ST segment depression over 5 minutes): i.v., Example 47 0.01, Nifedipine 0.03, Cromakalim 0.01 mg/kg, vasopressin 0.5 U/kg
Experimental: The test was carried out in accordance with the method of Hiramatsu, et al. (see Japanese Journal of Pharmacology, Vol. 20, p. 313 (1970)). […] A cannula for blood pressure measurement was inserted into the left femoral artery, and a cannula for drug administration was inserted into the left femoral vein. […] Then, ECG was taken every 30 seconds over a period of 5 minutes to observe depression of the ST segment. A control group was given the solvent for the drug (a solution in which 5% dimethyl sulfoxide, 5% polyethylene glycol 200 and 1% cremophor were dissolved in physiological saline).

[3] = tested on: Guinea Pig Tracheae; experiment: Relaxing activity in guinea pig tracheae contracted with 30 mM potassium chloride; format: cell-based; settings: for EC50: Cavia porcellus, relaxation by 10^-8 g/ml isoproterenol as 100%, read-out: EC50 (concentration inducing 50% relaxation)
Experimental: Male guinea pigs (body weight: 400-650 g) were sacrificed by exsanguination, and tracheae were excised.
Tracheal responses were measured isometrically using a transducer "EF-601G" (manufactured by Nihon Koden Kogyo Co., Ltd.) and recorded on a multi-pen recorder "R64 GP" (manufactured by Rika Denki Co., Ltd.). The initial tension in the tracheal preparation was set up at 1 g after the preparation had equilibrated for about 60 minutes, a 30 mM potassium chloride was added to cause contraction.

[4] = tested on: spontaneously hypertensive rats; experiment: Antihypertensive activity in spontaneously hypertensive rats (oral, tail-cuff); format: in vivo, rat; settings: for ED (50 mmHg): Rattus norvegicus, systolic blood pressure, read-out: ED50mmHg (effective dose for reducing blood pressure by 50 mmHg); for Max. increase of Heat Rate / Time for Onset of Max. Activity: dose reducing blood pressure by 50 to 60 mmHg
Experimental: Male spontaneously hypertensive rats (16 to 20-week-old; body weight: 300-400 g) fed ab lib. were forceably given oral administration of a test compound suspended in 0.5% (w/v) carboxymethyl cellulose aqueous solution. After 1, 2, 4, 6, 8, 24, 30 or 48 hours from the administration, the systolic blood pressure was measured by a tail-cuff method described in Arzneimittel-Forschung, Vol. 18, pp. 1285-1287 (1968)).
The antihypertensive activity of the test compound was obtained as an effective dose for reducing blood pressure by 50 mmHg (ED50mmHg). Further, the time of onset of the maximum activity and the maximum increase in heart rate at a dose for reducing blood pressure by 50 to 60 mmHg were measured.
The statistical difference between a test compound and EMD57283 was analyzed by the Student's t-test.

[5] = tested on: spontaneously hypertensive rats; experiment: Effect on renal blood flow (Doppler probe); format: in vivo, rat; settings: for Increase in Renal Blood Flow 1 Hr after Administration: oral, dose which reduced blood pressure by about 50 mmHg; for activity in increasing the renal blood flow vs reference drug (in words): vs EMD57283
Experimental: Twenty-week-old male spontaneously hypertensive rats (body weight: 350-430 g) were anesthetized with pentobarbital (30 mg/kg, i.p.). An incision was made in the abdomen on the left side, and a Doppler probe for blood flow measurement was fitted to the left renal artery, and the code (wire lead) of the probe was passed under the back skin and taken out from the back of the neck. After 1 week from the operation, the code of the probe was connected to a Doppler blood flow meter to start measurement of the renal blood flow. After the renal blood flow reached to a steady state, a test compound was orally administered, and changes in renal blood flow were observed up to 9 hours. The test compound was used at a dose which reduced blood pressure by about 50 mmHg.

T1 sequence (Q63563 1-1545 isoform Q63563-2): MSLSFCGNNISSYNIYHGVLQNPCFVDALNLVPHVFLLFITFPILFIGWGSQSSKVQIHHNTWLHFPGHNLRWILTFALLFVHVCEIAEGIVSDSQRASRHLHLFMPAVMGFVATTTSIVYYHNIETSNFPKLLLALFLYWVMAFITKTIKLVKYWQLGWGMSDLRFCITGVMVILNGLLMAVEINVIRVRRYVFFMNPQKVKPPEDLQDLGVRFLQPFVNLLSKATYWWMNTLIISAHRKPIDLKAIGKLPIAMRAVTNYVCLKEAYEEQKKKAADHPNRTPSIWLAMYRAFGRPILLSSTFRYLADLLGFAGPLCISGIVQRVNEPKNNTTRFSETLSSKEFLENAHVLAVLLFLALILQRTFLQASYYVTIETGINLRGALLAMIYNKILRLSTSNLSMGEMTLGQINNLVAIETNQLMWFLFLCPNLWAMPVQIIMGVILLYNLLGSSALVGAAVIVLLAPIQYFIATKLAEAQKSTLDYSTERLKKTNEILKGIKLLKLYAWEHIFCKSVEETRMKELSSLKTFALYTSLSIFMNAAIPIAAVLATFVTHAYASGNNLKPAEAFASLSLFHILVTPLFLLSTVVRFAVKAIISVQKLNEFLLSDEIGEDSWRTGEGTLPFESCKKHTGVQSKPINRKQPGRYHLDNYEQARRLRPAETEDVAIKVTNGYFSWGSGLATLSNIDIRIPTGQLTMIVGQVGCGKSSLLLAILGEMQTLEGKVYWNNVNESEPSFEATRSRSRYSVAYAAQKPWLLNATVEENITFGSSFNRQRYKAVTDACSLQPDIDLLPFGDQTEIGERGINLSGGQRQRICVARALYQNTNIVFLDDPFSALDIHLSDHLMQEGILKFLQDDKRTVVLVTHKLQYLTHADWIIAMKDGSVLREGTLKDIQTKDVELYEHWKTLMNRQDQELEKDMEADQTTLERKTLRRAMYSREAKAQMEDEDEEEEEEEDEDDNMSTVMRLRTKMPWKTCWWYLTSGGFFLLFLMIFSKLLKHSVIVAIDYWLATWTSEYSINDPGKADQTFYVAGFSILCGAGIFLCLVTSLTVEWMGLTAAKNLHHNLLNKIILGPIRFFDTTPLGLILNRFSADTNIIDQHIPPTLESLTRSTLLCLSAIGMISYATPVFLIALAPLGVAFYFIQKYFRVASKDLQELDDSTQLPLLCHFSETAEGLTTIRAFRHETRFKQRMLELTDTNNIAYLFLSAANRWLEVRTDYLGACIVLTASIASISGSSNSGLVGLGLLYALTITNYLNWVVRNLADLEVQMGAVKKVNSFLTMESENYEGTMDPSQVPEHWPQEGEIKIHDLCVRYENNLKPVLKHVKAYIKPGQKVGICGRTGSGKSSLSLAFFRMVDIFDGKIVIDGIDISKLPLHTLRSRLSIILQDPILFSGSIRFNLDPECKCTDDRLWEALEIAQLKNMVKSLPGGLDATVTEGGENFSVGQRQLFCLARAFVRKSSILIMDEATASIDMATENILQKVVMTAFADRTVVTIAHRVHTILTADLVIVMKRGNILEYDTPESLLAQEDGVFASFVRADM
T1 sequence (Q63664 whole entry partner, the tested form may be a part): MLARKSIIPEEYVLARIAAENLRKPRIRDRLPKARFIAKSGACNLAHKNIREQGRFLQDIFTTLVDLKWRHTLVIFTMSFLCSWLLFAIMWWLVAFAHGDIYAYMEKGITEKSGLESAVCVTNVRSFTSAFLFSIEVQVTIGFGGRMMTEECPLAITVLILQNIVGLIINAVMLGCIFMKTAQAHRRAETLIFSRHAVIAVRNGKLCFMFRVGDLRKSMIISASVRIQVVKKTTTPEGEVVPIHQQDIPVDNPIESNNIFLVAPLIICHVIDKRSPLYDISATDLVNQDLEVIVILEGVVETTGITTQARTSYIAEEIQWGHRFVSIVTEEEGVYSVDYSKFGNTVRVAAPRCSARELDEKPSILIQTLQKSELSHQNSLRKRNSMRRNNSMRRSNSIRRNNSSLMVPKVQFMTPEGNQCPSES

| SMILES | ECAUC0.2 (effective concentration at which the area under the peak of the 86Rb release rate reached 0.2) [1] | S Value (area of ST segment depression over 5 minutes) [2] | EC50 [3] | potassium channel opening activity (in words) [1] | activity in relaxing tracheal smooth muscle vs cromakalim (in words) [3] | antihypertensive activity (in words) [4] | duration of activity (in words) [4] | ED (50 mmHg) [4] | Max. increase of Heat Rate [4] | Time for Onset of Max. Activity [4] | Increase in Renal Blood Flow 1 Hr after Administration [5] | activity in increasing the renal blood flow vs reference drug (in words) [5] | antianginal activity (in words) ([2]; 0.01 mg/kg i.v.) |
| --- | --- | --- | --- | --- | --- | --- | --- | --- | --- | --- | --- | --- | --- |
| CC1(C)Oc2ccc(C#N)cc2[C@@H](N2CCCC2=O)[C@@H]1O (relative stereo) [Cromakalim, 3,4trans-3,4-Dihydro-2,2-dimethyl-3-hydroxy-4-(2-oxopyrrolidin-1-yl)-2H-1benzopyran-6-carbonitrile, reference compound] | 2.8 | 562 μV.min | 49 µM | – | – | – | – | – | – | – | – | – | – |
| CN1N=C(O[C@@H]2c3cc(C#N)ccc3OC(C)(C)[C@H]2O)C2CC2C1=O (relative stereo) [Example 22, (3S,4R,1'R*,6'S*)-3,4-dihydro-2,2-dimethyl-3-hydroxy-4-(3-methyl-2-oxo-3,4-diazabicyclo(4.1.0]hept-4-en-5-yloxy)-2H-benzopyran-6-carbonitrile] | 0.18 | – | – | possesses potassium channel opening activity | – | – | – | – | – | – | – | – | – |
| C=CCN1N=C(O[C@@H]2c3cc(C#N)ccc3OC(C)(C)[C@H]2O)C2CC2C1=O (relative stereo) [Example 23, (3S,4R,1'R*,6'S*)-4-(3-allyl-2-oxo-3,4-diazabicyclo[4.1.0]hept-4-en-5-yloxy)-3,4-dihydro-2,2-dimethyl-3-hydroxy-2H-1-benzopyran-6-carbonitrile] | 0.18 | – | 5.5 µM | possesses potassium channel opening activity | more potent activity in relaxing tracheal smooth muscle than cromakalim | – | – | – | – | – | – | – | – |
| C#CCN1N=C(O[C@@H]2c3cc(C#N)ccc3OC(C)(C)[C@H]2O)C2CC2C1=O (relative stereo) [Example 24, (3S, 4R, 1'R*,6'S*)-3,4-dihydro-2,2-dimethyl-3-hydroxy-4-(2-oxo-3-(2-propyn-1-yl)-3,4-diazabicyclo[4.1.D]hept-4-en-5-yloxy)-2H-1-benzopyran-6-carbonitrile] | – | – | – | – | – | potent antihypertensive activity | long duration of activity | 0.02 mg/kg | 22.2 ± 2.3% | 5.6 ± 1.2 h | – | – | – |
| CC(C)=CCN1N=C(O[C@@H]2c3cc(C#N)ccc3OC(C)(C)[C@H]2O)C2CC2C1=O (relative stereo) [Example 29, (3S,4R,1'R*,6'S*)-3,4-dihydro-2,2-dimethyl-3-hydroxy-4-(3-(3-methyl-2-buten-1-yl)-2-oxo-3,4-diazabicyclo[4.1.0]hept-4-en-5-yloxy)-2H-1-benzopyran-6-carbonitrile] | – | – | 3 µM | – | more potent activity in relaxing tracheal smooth muscle than cromakalim | – | – | – | – | – | – | – | – |
| CCCCN1N=C(O[C@@H]2c3cc(C#N)ccc3OC(C)(C)[C@H]2O)C2CC2C1=O (relative stereo) [Example 32, (3S,4R,1'R*,6'S*)-4-(3-n-butyl-2-oxo-3,4-diazabicyclo(4.1.0]hept-4-en-5-yloxy)-3,4-dihydro-2,2-dimethyl-3-hydroxy-2H-1-benzopyran-6-carbonitrile] | – | – | 5 µM | – | more potent activity in relaxing tracheal smooth muscle than cromakalim | potent antihypertensive activity | long duration of activity | 0.076 mg/kg | 22.3 ± 5.9% | 6.0 ± 0.6 h | – | – | – |
| CC1(C)Oc2ccc(C#N)cc2[C@@H](OC2=NN(Cc3c(Cl)cccc3Cl)C(=O)C3CC23)[C@@H]1O (relative stereo) [Example 36, (3S,4R,1'R*,6'S*)-4-(3-(2,6-dichlorobenzyl)-2-oxo-3,4-diazabicyclo[4.1.0]hept-4-en-5-yloxy)-3,4-dihydro-2,2-dimethyl-3-hydroxy-2H-1-benzopyran-6-carbonitrile] | – | – | – | – | – | potent antihypertensive activity | long duration of activity | 0.4 mg/kg | 9.6 ± 1.3% | 6.8 ± 0.5 h | 15.4 ± 4.5% | more potent activity in increasing the renal blood flow than the reference drug | – |
| CC1(C)Oc2ccc(C#N)cc2[C@@H](OC2=NN(Cc3ccc(Cl)cc3Cl)C(=O)C3CC23)[C@@H]1O (relative stereo) [Example 37, (3S,4R,1'R*,6'S*)-4-(3-(2,4-dichlorobenzyl)-2-oxo-3,4-diazabicyclo[4.1.0]hept-4-en-5-yloxy)-3,4-dihydro-2,2-dimethyl-3-hydroxy-2H-1-benzopyran-6-carbonitrile] | – | – | – | – | – | potent antihypertensive activity | long duration of activity | 0.035 mg/kg | 9.2 ± 1.7% | 7.6 ± 0.4 h | – | – | – |
| CC1(C)Oc2ccc(C#N)cc2[C@@H](OC2=NNC(=O)C3CC23)[C@@H]1O (relative stereo) [Example 47, (3S,4R,1'R*,6'S*)-3,4-Dihydro-2,2-dimethyl-3-hydroxy-4-(2-oxo-3,4-diazabicyclo[4.1.0]-hept-4-en-5-yloxy)-2H-1-benzopyran-6-carbonitrile] | 0.21 | 109 μV.min | – | possesses potassium channel opening activity | – | – | – | – | – | – | 24.3 ± 13.7% | more potent activity in increasing the renal blood flow than the reference drug | significantly reduces the S value |
| CN1N=C(O[C@@H]2c3cc(C#N)ccc3OC(C)(C)[C@@]2(C)O)C2CC2C1=O (relative stereo) [Example 56, (3S,4R,1'R*,6'S*)-3,4-Dihydro-3-hydroxy-4-(3-methyl-2-oxo-3,4-diazabicyclo[4.1.0]hept-4-en-5-yloxy)-2,2,3-trimethyl-2H-1-benzopyran-6-carbonitrile] | 0.021 | – | – | possesses potassium channel opening activity | – | potent antihypertensive activity | long duration of activity | 0.0023 mg/kg | 19.2 ± 0.5% | 6.4 ± 0.4 h | – | – | – |
| Cn1nc(O[C@@H]2c3cc(C#N)ccc3OC(C)(C)[C@H]2O)ccc1=O [EMD57283, (3S,4R)3,4-Dihydro-4-((1,6-dihydro-1-methyl-6-oxo-3-pyridazinyl)oxy)-2,2-imethyl-3-hydroxy-2H-1-benzopyran-6-carbonitrile, reference compound] | 0.16 | – | – | – | – | – | – | 0.0064 mg/kg | 41.3 ± 2.8% | 2.8 ± 0.7 h | 10.8 ± 4.1% | – | – |
| CC1(C)Oc2ccc(C#N)cc2[C@@H](OC2=NN(Cc3ccccc3)C(=O)[C@H]3C[C@@H]23)[C@@H]1O [Example 21, (3S, 4R, 1'S, 6'R)-4-(3-Benzyl-2-oxo-3,4-diazabicyclo[4.1.0]hept-4-en-5-yloxy)-3,4-dihydro-2,2-dimethyl-3-hydroxy-2H-1-benzopyran-6-carbonitrile] | – | – | – | – | – | potent antihypertensive activity | long duration of activity | 0.053 mg/kg | 19.7 ± 3.0% | 6.4 ± 0.5 h | 59.4 ± 9.7% | more potent activity in increasing the renal blood flow than the reference drug | – |
| COC(=O)C1=C(C)NC(C)=C(C(=O)OC)C1c1ccccc1[N+](=O)[O-] [Nifedipine, reference compound] | – | 393 μV.min | – | – | – | – | – | – | – | – | – | – | – |

Source: patent US5418232A, “Diazabicycloalkene derivatives” (Daiichi Pharmaceutical Co., Ltd., priority 1992, dated 1995)
